Assay results from patent EP3875086A1, “DUAL-INHIBITORS OF CELLULAR NECROPTOSIS AND FERROPTOSIS FOR USE IN THE TREATMENT OF ORGAN TRANSPLANT PATIENTS” (Technische Universität Dresden, priority 2020, dated 2021).
Entries after “also recorded” stand apart in the source; their conditions may differ.

Legend:
NIH3T3 cells [1] = test: Inhibition of RSL-3-induced ferroptosis, flow cytometry (annexinV / 7-AAD); type: cell-based, Murine; conditions: RSL-3 1.13 µM for 6 h, with simultaneous necrostatin
Protocol: (§1) • Figure 1: Overview of chemical structures of different necrostatins. Structural differences between Nec-1f in comparison to known necroptosis inhibitors Nec-1 and Nec-1s. Highlighted are the main residues involved in facilitating protection from necroptosis and/or ferroptosis. • Figure 2: Biotinylation of Nec-1. Simplified scheme of linking the target molecule Nec-1 to a biotin anker. […] (A, B) Inhibition of cell death by Nec-1f in NIH3T3 cells was assessed by flow cytometry. Cells were treated with the ferroptosis inducer RSL-3 (1.13 µM) for 6 h with or without simultaneous substitution of necrostatins. The percentage of cells positive for annexinV and 7-AAD was recorded. (C, D) Viability of NIH3T3 cells after induction of ferroptosis. Cells were treated with 1.13 µM RSL-3 for 6 h and collected for flow cytometry. […] (A, B) Inhibition of necroptotic cell death by Nec-1f in NIH3T3 cells was assessed by flow cytometry. […] The percentage of cells positive for annexinV and 7-AAD was recorded. […] (A, B) After 48h mice were sacrificed and serum creatinine levels and serum urea levels were measured as markers of renal function and intoxication. […]
(§2) Phosphatidylserine exposure to the outer cell membrane of apoptotic cells or at the inner plasma membrane of necrotic cells and incorporation of 7-AAD into necrotic cells were quantified by fluorescence-activated cell sorting (FACS) analysis. […]

NIH3T3 cells [2] = test: Inhibition of TNF/Birinapant/zVAD (TSZ)-induced necroptosis, flow cytometry (annexinV / 7-AAD); type: cell-based, Murine; conditions: TNF + Birinapant + z-VAD-fmk (TSZ), 18 h
Protocol: as §1, §2

[3] = Murine kidney ischemia-reperfusion injury model; type: in vivo, C57BL/6 mice; conditions: mice, 30 min ischemia
Protocol: • Figure 1: Overview of chemical structures of different necrostatins. Structural differences between Nec-1f in comparison to known necroptosis inhibitors Nec-1 and Nec-1s. Highlighted are the main residues involved in facilitating protection from necroptosis and/or ferroptosis. • Figure 2: Biotinylation of Nec-1. Simplified scheme of linking the target molecule Nec-1 to a biotin anker. […] (A, B) Inhibition of cell death by Nec-1f in NIH3T3 cells was assessed by flow cytometry. Cells were treated with the ferroptosis inducer RSL-3 (1.13 µM) for 6 h with or without simultaneous substitution of necrostatins. The percentage of cells positive for annexinV and 7-AAD was recorded. (C, D) Viability of NIH3T3 cells after induction of ferroptosis. Cells were treated with 1.13 µM RSL-3 for 6 h and collected for flow cytometry. […] (A, B) Inhibition of necroptotic cell death by Nec-1f in NIH3T3 cells was assessed by flow cytometry. Cells were treated with the TNF, Birinapant and z-VAD-fmk (TSZ) to induce necroptosis. After 18 h necroptosis induction with or without simultaneous substitution of necrostatins the cells were harvested and stained for flow cytometry. The percentage of cells positive for annexinV and 7-AAD was recorded. (C, D) Viability of NIH3T3 cells 18h after induction of necroptosis via TSZ treatment. […] Animals were subjected to 30 min of ischemia after i.p. injection of 0.6 mg Nec-1f per kg bodyweight or the respective vehicle control in PBS. (A, B) After 48h mice were sacrificed and serum creatinine levels and serum urea levels were measured as markers of renal function and intoxication. Error bars represent standard deviation. • Figure 6: Synthesis of 5-[(7-Chloro-1H-indol-3-yl)methyl]-3-methyl-2-thioxo-imidazolidin-4-one (1-3; Nec-1f) according to example 2. • Figure 7: Synthesis of 5-[(3aS,4R,6aR)-2-Oxo-1,3,3a,4,6,6a-hexahydrothieno[3,4-d]imidazol-4-yl]-N-[[1-[2-[2-[2-[[3-[(1-methyl-5-oxo-2-thioxo-imidazolidin-4-yl)methyl]-1H-indol-7-yl]oxy]ethoxy]ethoxy]ethyl]triazol-4-yl]methyl]pentanamide (2-8; biotinylated Nec-1) according to example 3. […]

[4] = 0.6 mg Nec-1f per kg bodyweight i.p. 15 min before ischemia, 48 h after reperfusion

**Q.** For `CN1C(=O)C(Cc2c[nH]c3c(Cl)cccc23)NC1=S` (centres unmarked) [Nec-1f, 5-[(7-Chloro-1H-indol-3-yl)methyl]-3-methyl-2-thioxo-imidazolidin-4-one], which “assays used to detect ferroptosis (cell death / viability, annexinV and 7-AAD)” value (NIH3T3 cells [1]) is on record?
**A.** protects cells from undergoing ferroptosis; also recorded: reversed

**Q.** And the “assays used to detect necroptosis (cell death / viability, annexinV and 7-AAD)” value (NIH3T3 cells [2])?
**A.** protects cells from undergoing necroptosis; also recorded: reversed

**Q.** And the “protection in animal model of renal ischemia-reperfusion injury” value ([3]; 0.6 mg Nec-1f per kg bodyweight i.p.)?
**A.** protective

**Q.** What about the “serum creatinine levels (marker of renal function)” value [3, 4] of the same molecule?
**A.** reversed

**Q.** What about the “serum urea levels (intoxication marker)” value [3, 4] of the same molecule?
**A.** reversed
